Results published in patent publication US7968526B2, “Antisense oligonucleotides directed to ribonucleotide reductase R2 and uses thereof in the treatment of cancer” (Lorus Therapeutics Inc., priority 2003, dated 2011).
Entries after “also recorded” stand apart in the source; their conditions may differ.

Columns and labels:
[1] = tested on: A2058 human melanoma cells; assay: A2058 melanoma xenograft in CD-1 nude mice, combination with DTIC (1.6); type: in vivo, human cells in mice; conditions: SEQ ID NO:1 10 mg/kg i.v. every other day, DTIC 80 mg/kg i.v. days 6-10
Method: After 52 days the mice were sacrificed and the tumours weighed. […] Mitoxantrone was administered intravenously once at the beginning of the treatments at a dose of 2 mg/kg (FIG. 4A) or once a week for four weeks at a reduced dose of 0.8 mg/kg (FIG. 4B). All treatments were stopped at day 50 (FIG. 4A) or 48 (FIG. 4B), respectively. […] Mitoxantrone was administered intravenously once at the beginning of the treatments at a dose of 2 mg/kg (FIG. 5A) or once a week for four weeks at a reduced dose of 0.8 mg/kg (FIG. 5B). All treatments were stopped at day 42 (FIG. 5A) or 38 (FIG. 5B), respectively. […] A2058 is a metastatic melanoma cell line. […] All treatments were stopped at day 24. […] Taxol was administered intravenously once a week at a dose of 10 mg/kg for three (FIG. 7A) or four weeks (FIG. 7C). Doxorubicin was administered intravenously once a week at a dose of 5 mg/kg for first three weeks (FIG. 7A) or for two weeks (FIG. 7C). All treatments were stopped at day 33 (FIG. 7A) or at day 26 (FIG. 7C), respectively. […] In FIG. 7C, antitumour activities were estimated by the inhibition of tumour volume, which was measured with calipers. Each point represents mean tumour volume calculated from 10 animals per experimental group. […] Taxol was administered intravenously once a week for first three weeks and intraperitoneally once a week for next two weeks at a dose of 10 mg/kg. Cisplatin was administered intravenously once a week for first three weeks and intraperitoneally once a week for next two weeks at a dose of 4 mg/kg. All treatments were stopped at day 40. Antitumour activities were estimated by the inhibition of tumour volume, which was measured with caliper. Each point represents mean tumour volume calculated from 9 animals per experimental group.

[2] = tested on: MDA-CDDP-S4 human in vivo-selected Cisplatin-resistant breast adenocarcinoma cells; assay: MDA-CDDP-S4 Cisplatin-resistant breast adenocarcinoma, fat pad, SCID mice (2.3); set-up: species or system human cells in mice
Method: BxPC-3 is a gemcitabine resistant call line. […] Gemcitabine was administered intravenously every three days at a dose of 100 mg/kg. Antitumour activities were estimated by the inhibition of tumour volume, which was measured with caliper. Each point represents mean tumour volume calculated from 10 animals per experimental group. […] Hela S3 is a hydroxyurea resistant cell line. […] Hydroxyurea was administered intraperitoneally every day at a dose of 250 mg/kg for 10 days. Cisplatin was administered intravenously once a week for three weeks at a dose of 4 mg/kg. Antitumour activities were estimated by the inhibition of tumour volume, which was measured with caliper. Each point represents mean tumour volume calculated from 10 animals per experimental group. […] Cisplatin was administered intravenously once a week for three weeks at a dose of 4 mg/kg. Taxol was administered intravenously once a week for three weeks at a dose of 10 mg/kg. Antitumour activities were estimated by the inhibition of tumour volume, which was measured with caliper. Each point represents mean tumour volume calculated from 10 animals per experimental group. […] Taxol was administered i.p. once a week at a dose of 10 mg/kg. Antitumour activities were estimated by the inhibition of tumour volume (FIG. 12A), which was measured with calipers. Each point represents mean tumour volume calculated from 10 animals per experimental group. Animals were sacrificed and tumour weights taken at the end of the study (FIG. 12C). […] Cisplatin was administered intravenously once a week for four weeks at a dose of 4 mg/kg. Taxol was administered intravenously once a week for four weeks at a dose of 20 mg/kg. Antitumour activities were estimated by the inhibition of tumour volume, which was measured with caliper. Each point represents mean tumour volume calculated from 9-10 animals per experimental group. […] Cisplatin was administered intravenously once a week for four weeks at a dose of 4 mg/kg. Antitumour activities were estimated by the inhibition of tumour volume, which was measured with caliper. Each point represents mean tumour volume calculated from 10 animals per experimental group. At the end of the study the animals were sacrificed and tumours weighed. […] Taxol was administered i.p. once a week at a dose of 10 mg/kg. Anti-tumour activity was estimated by the inhibition of tumour volume, which was measured with caliper. Each point represents mean tumour volume calculated from 10 animals per experimental group. In addition animals were sacrificed and tumour weights taken at the end of the study. […] CPT-11 was administered i.p. for 5 days at a dose of 20 mg/kg/day. Antitumour activities were estimated by the inhibition of tumour volume, which was measured with caliper. Each point represents mean tumour volume calculated from 10 animals per experimental group. Tumour weights were measured after animals were sacrificed at the end of the treatment. These cells are not resistant to CPT-11 which was used as a positive control.

5′-GGCTAAATCGCTCCACCAAG-3′ (all phosphorothioate, sugars by position and methylation of C not given here) [SEQ ID NO: 1, fully phosphorothioated antisense oligonucleotide that hybridizes to the coding region of R2 mRNA]
Tumour weight as % of saline control ([1]; A2058 (melanoma), CD-1): 20%
Antitumour effect (tumour weight, FIG. 6) ([1]; A2058, CD-1 nude mice): significant delay of tumour growth compared to saline control; also recorded: superior to the inhibitory effects observed with DTIC alone
Tumour weight as % of saline control ([2]; MDA-CDDP-S4 (breast), Cisplatin resistant, SCID, SEQ ID NO:1 10 mg/kg i.v. every other day 9 times, Taxol 10 mg/kg, Cisplatin 4 mg/kg i.v. weekly x3): 32%
Antitumour effect (FIG. 11) ([2]; MDA-CDDP-S4 Cisplatin-resistant, SCID mice, SEQ ID NO:1 10 mg/kg i.v. every other day, Cisplatin 4 mg/kg, Taxol 10 mg/kg i.v. weekly): significant reduction of tumour weight compared to saline control
